Test results from ChEMBL document CHEMBL5325505, “Discovery of chiral 1,4-diarylazetidin-2-one-based hydroxamic acid derivatives as novel tubulin polymerization inhibitors with histone deacetylase inhibitory activity” (Bioorg Med Chem, 2023).
Activity calls are given as the source filed them. The calls are words filed in the database; no cut-off is given here.

Columns and labels:
A549 = experiment: Antiproliferative activity against human A549 cells incubated for 48 hrs by MTT assay; assay type: functional, cell-based; conditions: A549, 48 h
[1] = Metabolic stability in human liver microsomes assessed as compound remaining incubated for 5 mins; assay type: ADME, Microsome; conditions: read-out: Stability
BE(2)-C [2] = experiment: Induction of apoptosis in human BE2C cells assessed as early apoptotic cells at 100 nM incubated for 48 hrs by annexin V-FITC/PI staining based flow cytometry (reference value: 4.28 %); assay type: functional
BE(2)-C [3] = experiment: Induction of cell cycle arrest in human BE2C cells assessed as increase in cyclin B1 expression by Western blot analysis; assay type: functional, cell-based; conditions: dose 12.5-50 nM
BE(2)-C [4] = experiment: Induction of apoptosis in human BE2C cells assessed as viable cells at 100 nM incubated for 48 hrs by annexin V-FITC/PI staining based flow cytometry (reference value: 82.16 %); assay type: functional; conditions: read-out: Activity
BE(2)-C [5] = experiment: Upregulation of cleaved PARP-1 expression in human BE2C cells at 25 to 100 nM by Western blot analysis; assay type: functional, cell-based; conditions: dose 25-100 nM
[6] = Metabolic stability in human liver microsomes assessed as compound remaining incubated for 60 mins; assay type: ADME, Microsome; conditions: liver microsomes, read-out: Stability
BE(2)-C [7] = experiment: Induction of cell cycle arrest in human BE2C cells assessed as increase in phosphorylated H3 expression by Western blot analysis; assay type: functional, cell-based; conditions: dose 12.5-50 nM
[8] = Metabolic stability in human liver microsomes assessed as compound remaining incubated for 20 mins; assay type: ADME, Microsome; conditions: microsomes, 20 min
BE(2)-C [9] = experiment: Induction of apoptosis in human BE2C cells assessed as early apoptotic cells at 50 nM incubated for 48 hrs by annexin V-FITC/PI staining based flow cytometry (reference value: 4.28 %); assay type: functional
BE(2)-C [10] = experiment: Antitumor activity against human BE2C cells xenografted in nude mouse assessed as tumor growth inhibition at 25 mg/kg, ip treated for every 3 days relative to control; assay type: functional; conditions: 72 h, time 3 day, read-out: TGI
Tubulin (Homo sapiens) = Tubulin (Homo sapiens) (UniProt P68371+Q9H4B7+P0DPH7+P68366+Q13509+Q71U36+P04350+Q3ZCM7+P07437+P68363+Q9BQE3+Q6PEY2+Q13885+Q9BVA1+Q9BUF5); experiment: Inhibition of tubulin polymerization in human BE2C cells assessed as decrease in tubulin density at 25 to 100 nM incubated for 24 hrs by immunofluorescence based microscopy; assay type: cell-based; conditions: dose 25-100 nM
[11] = Metabolic stability in human liver microsomes assessed as half life; assay type: ADME, Microsome
BE(2)-C [12] = experiment: Upregulation of Bax expression in human BE2C cells at 25 to 100 nM by Western blot analysis; assay type: functional, cell-based; conditions: dose 25-100 nM
BE(2)-C [13] = experiment: Induction of apoptosis in human BE2C cells assessed as late apoptotic cells at 50 nM incubated for 48 hrs by annexin V-FITC/PI staining based flow cytometry (reference value: 9.99 %); assay type: functional
BE(2)-C [14] = experiment: Induction of apoptosis in human BE2C cells assessed as necrotic cells at 100 nM incubated for 48 hrs by annexin V-FITC/PI staining based flow cytometry (reference value: 3.57 %); assay type: functional
[15] = target: T1, Protein deacetylase HDAC6 (Homo sapiens, UniProt Q9UBN7); experiment: Inhibition of HDAC6 (unknown origin)
T1 sequence (Q9UBN7 whole entry): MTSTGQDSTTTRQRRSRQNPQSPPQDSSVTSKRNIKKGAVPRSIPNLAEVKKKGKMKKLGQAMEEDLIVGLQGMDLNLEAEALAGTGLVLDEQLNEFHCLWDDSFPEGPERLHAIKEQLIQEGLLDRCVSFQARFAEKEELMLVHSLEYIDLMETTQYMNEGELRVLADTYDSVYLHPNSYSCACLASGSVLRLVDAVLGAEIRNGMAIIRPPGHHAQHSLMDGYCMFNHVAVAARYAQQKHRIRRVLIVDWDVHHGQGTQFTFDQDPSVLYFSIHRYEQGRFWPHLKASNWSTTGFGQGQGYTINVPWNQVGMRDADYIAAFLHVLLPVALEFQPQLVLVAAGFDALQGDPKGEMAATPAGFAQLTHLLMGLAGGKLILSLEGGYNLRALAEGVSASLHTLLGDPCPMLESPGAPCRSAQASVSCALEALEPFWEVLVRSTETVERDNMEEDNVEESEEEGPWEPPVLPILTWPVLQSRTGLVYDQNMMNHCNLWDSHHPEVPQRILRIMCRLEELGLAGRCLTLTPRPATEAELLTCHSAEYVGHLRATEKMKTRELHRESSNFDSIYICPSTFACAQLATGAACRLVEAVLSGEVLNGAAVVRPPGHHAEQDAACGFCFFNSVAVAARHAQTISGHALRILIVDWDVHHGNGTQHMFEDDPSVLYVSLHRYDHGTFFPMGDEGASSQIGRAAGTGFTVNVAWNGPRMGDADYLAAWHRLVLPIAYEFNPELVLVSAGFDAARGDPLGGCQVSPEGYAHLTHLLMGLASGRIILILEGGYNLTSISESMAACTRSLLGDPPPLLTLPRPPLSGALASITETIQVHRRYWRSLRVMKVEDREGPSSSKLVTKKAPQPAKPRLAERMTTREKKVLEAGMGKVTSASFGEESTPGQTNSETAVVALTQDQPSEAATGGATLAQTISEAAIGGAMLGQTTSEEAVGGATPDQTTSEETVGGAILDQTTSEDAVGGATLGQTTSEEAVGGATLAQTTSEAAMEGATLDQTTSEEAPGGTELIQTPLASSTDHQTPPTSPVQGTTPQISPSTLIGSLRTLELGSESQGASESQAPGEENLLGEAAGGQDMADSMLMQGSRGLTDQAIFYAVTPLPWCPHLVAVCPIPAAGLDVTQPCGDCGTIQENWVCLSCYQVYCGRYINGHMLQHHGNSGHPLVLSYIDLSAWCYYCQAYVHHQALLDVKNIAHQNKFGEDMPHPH

Histone deacetylase 1 = Histone deacetylase 1 (Homo sapiens, UniProt Q13547); experiment: Inhibition of HDAC1 (unknown origin)
BE(2)-C [16] = experiment: Induction of cell cycle arrest in human BE2C cells assessed as accumulation at G2/M phase at 100 nM incubated for 24 hrs by RNase/PI staining based flow cytometry (reference value: 31 %); assay type: functional
BE(2)-C [17] = experiment: Induction of apoptosis in human BE2C cells assessed as necrotic cells at 25 nM incubated for 48 hrs by annexin V-FITC/PI staining based flow cytometry (reference value: 3.57 %); assay type: functional
BE(2)-C [18] = experiment: Upregulation of acetylated SMC3 expression in human BE2C cells by Western blot analysis; assay type: functional, cell-based; conditions: dose 25-100 nM

Chain of Histone deacetylase 1 (Q13547 whole entry): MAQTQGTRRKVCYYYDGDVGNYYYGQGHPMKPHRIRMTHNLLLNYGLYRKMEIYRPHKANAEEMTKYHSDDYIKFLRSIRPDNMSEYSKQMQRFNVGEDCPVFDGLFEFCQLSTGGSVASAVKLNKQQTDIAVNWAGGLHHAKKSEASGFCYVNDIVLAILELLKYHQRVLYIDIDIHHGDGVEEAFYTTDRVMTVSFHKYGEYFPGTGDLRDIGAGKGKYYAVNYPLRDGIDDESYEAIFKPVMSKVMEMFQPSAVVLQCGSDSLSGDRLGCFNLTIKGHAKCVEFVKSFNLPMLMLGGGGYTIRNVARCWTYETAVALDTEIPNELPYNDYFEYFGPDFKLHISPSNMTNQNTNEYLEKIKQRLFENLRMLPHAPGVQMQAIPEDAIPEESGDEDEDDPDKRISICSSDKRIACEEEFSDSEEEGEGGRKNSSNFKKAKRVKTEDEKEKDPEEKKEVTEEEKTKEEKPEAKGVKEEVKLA

In the case of `COc1ccc([C@H]2[C@H](COC(=O)c3ccc(C(=O)NO)cc3)C(=O)N2c2cc(OC)c(OC)c(OC)c2)cc1O`, the IC50 (A549) is reported as 53 nM, the remaining at 5 min [1] is reported as 89.4% and the Activity (BE(2)-C [2]) is reported as 17.27%. The Activity (BE(2)-C [3]) was “Dose-Dependent Effect”, the viability at 0.1 µM (BE(2)-C [4]) was 29.2% and the Activity (BE(2)-C [5]) was “Active”. For the same molecule, the remaining at 1 h [6] was 55.3%, the Activity (BE(2)-C [7]) was “Dose-Dependent Effect” and the Stability [8] was 61.3%. For the same molecule, the Activity (BE(2)-C [9]) was 12.23%, the inhibition in vivo at 25 mg/kg (BE(2)-C [10]) was 67% and the inhibition (Tubulin (Homo sapiens)) was “Active”. For the same molecule, the t1/2 [11] was 68.8 min, the Activity (BE(2)-C [12]) was “Active” and the Activity (BE(2)-C [13]) was 29.09%. For the same molecule, the Activity (BE(2)-C [14]) was 9.54%, the IC50 [15] was 1040 nM and the IC50 (Histone deacetylase 1) was 155 nM. For the same molecule, the Activity (BE(2)-C [16]) was roughly 77%, the Activity (BE(2)-C [17]) was 7.06% and the Activity (BE(2)-C [18]) was “Dose-Dependent Effect”.
